Assay [1] addresses T1, Bifunctional methylenetetrahydrofolate dehydrogenase/cyclohydrolase, mitochondrial (Homo sapiens) (UniProt P13995).
T1 sequence (whole entry): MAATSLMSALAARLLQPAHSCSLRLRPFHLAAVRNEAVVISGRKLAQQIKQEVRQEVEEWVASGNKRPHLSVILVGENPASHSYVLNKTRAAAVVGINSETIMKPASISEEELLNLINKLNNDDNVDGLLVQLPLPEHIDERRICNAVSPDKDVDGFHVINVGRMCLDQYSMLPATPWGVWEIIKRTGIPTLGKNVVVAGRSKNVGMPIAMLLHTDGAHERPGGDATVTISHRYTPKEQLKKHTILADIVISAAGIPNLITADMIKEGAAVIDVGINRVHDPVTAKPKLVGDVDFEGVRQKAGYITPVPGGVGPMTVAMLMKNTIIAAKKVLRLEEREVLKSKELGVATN
Briefly: Uncompetitive inhibition of C-terminal His-tagged human MTHFD2 (36 to 350 residues) expressed in insect cells assessed as decrease in Km by using varying levels of tetrahydrofolate as substrate by double-reciprocal plot analysis. As to conditions: time 10.0 min.

The target in assay [2] is T1, Bifunctional methylenetetrahydrofolate dehydrogenase/cyclohydrolase, mitochondrial (Homo sapiens). Briefly: Uncompetitive inhibition of C-terminal His-tagged human MTHFD2 (36 to 350 residues) expressed in insect cells assessed as decrease in Vmax using varying levels of tetrahydrofolate as substrate by double-reciprocal plot analysis. The settings on record: time 10.0 min.

SMILES strings stand for the structures. Active and inactive are the calls of the source. The calls are words filed in the database; no cut-off is given here.

As to `Cc1cc(Nc2nc3c(c(=O)n(Cc4cc5c(Cl)cccc5[nH]4)c(=O)n3C)n2C)nc(CCC(=O)O)n1`, the inhibition entry in assay [1] and in assay [2] was “Active” each time.

(Values after ChEMBL document CHEMBL5030528, “Xanthine Derivatives Reveal an Allosteric Binding Site in Methylenetetrahydrofolate Dehydrogenase 2 (MTHFD2)” (J Med Chem, 2021).)
